From patent publication US20090196878A1, “Intestinal epithelial glucose sensor” (priority 2004, published 2009)

Key:
SGLT1 expression [1] = assay: Dietary trial, SGLT1 mRNA by real-time PCR in wild-type mice; type: in vivo, mouse; settings: proximal and mid intestinal regions, low carbohydrate diet plus sucralose 2 mM, 2 weeks, qPCR
Method: (§1) Male CD-1 and C57BL/6 mice, six weeks old, from Charles River Laboratories were used. The α-gustducin knock out mouse was described by Wong et al. (1996); the T1R3 knock out mouse was described by Damak et al. 2003).
(§2) High and low carbohydrate diets were resp. TestDiet® 5810 and TestDiet® 5787-9. For the sucralose test, the low carbohydrate diet was supplemented with sucralose (1,6-dichloro-1,6-dideoxy-beta-D-fructofuranosyl-4-chloro-4-deoxy-alpha-galactopyranoside) at 2 mM.
(§3) Animals were killed by concussion followed by cervical dislocation. The entire small intestine was removed and flushed with ice-cold 0.9% NaCl, opened longitudinally, rinsed in saline and mucous removed by blotting. The small intestine was then divided into proximal, mid and distal sections and the mucosa removed by scraping. Mucosal scrapings were frozen immediately in liquid nitrogen and stored at −80° C. until use. […]
(§4) Second, groups of wildtype and T1R3 and α-gustducin KO mice were placed on each of three iso-caloric diets a) low carbohydrate, b) high carbohydrate, and c) low carbohydrate+artificial sweetener (sucralose), for two weeks. After this time the mice were killed and the small intestines were removed, divided into proximal, mid and distal regions, and SGLT1 expression, at protein and mRNA levels, were measured in each.

SGLT1 expression [2] = assay: Dietary trial, SGLT1 protein by western blot of luminal membrane vesicles in wild-type mice; type: in vivo, mouse; settings: low carbohydrate + sucralose diet, 2 weeks
Method: as §1, §2, §3, §4

SGLT1 expression [3] = assay: Dietary trial, SGLT1 expression in T1R3 knock-out mice; type: in vivo, mouse; settings: T1R3 KO mice, low-carbohydrate + sucralose diet, 2 weeks
Method: as §1, §2, §3, §4

SGLT1 expression [4] = assay: Dietary trial, SGLT1 expression in α-gustducin knock-out mice; type: in vivo, mouse; settings: α-gustducin KO mice, low-carbohydrate + sucralose diet, 2 weeks
Method: as §1, §2, §3, §4

[5] = reported, Roberts et al. 2000; cited from earlier work

## OC[C@H]1O[C@H](O[C@]2(CCl)O[C@H](CCl)[C@@H](O)[C@@H]2O)[C@H](O)[C@@H](O)[C@H]1Cl [sucralose, 1,6-dichloro-1,6-dideoxy-beta-D-fructofuranosyl-4-chloro-4-deoxy-alpha-galactopyranoside]
SGLT1 expression [1]
  increase in SGLT1 mRNA: 30-70%
SGLT1 expression [2]
  SGLT1 protein expression: increased
SGLT1 expression [3]
  SGLT1 mRNA: no increase
  SGLT1 protein: no increase
SGLT1 expression [4]
  SGLT1 mRNA: no increase
  SGLT1 protein: no increase
[5]
  hydrolysis, transport and metabolism within the mammalian small intestine: non-hydrolysed, non-transported and non-metabolised
